Results on 9 molecules are retold here after patent US4812443A, “Methods for enhancing differentiation and proliferation of hematopoietic progenitor cells” (Kuraray Co., Ltd., priority 1984, dated 1989).

The test system of series [1] is erythropoietic progenitor cells. The settings on record: in vitro cell culture, presence of hematopoietic stimulating hormones; Table 1; cited from earlier work.
For series [2] the following is noted: general knowledge; cited from earlier work.
The subject of series [3] is late erythrocytic progenitor cells (CFU-e). The series can be described thus: Differentiation and proliferation of late erythrocytic progenitor cells (CFU-e), cluster colony formation. Particulars: 20 μg/ml, Runs 2 to 4; for Number of colonies formed in the dolichols-added group (CFU-e): 2 days, erythropoietin 0.25 unit, mean ± S.E., 6 replicas, solvent controls 124.2 ± 2.7, 246.0 ± 5.0, 124.7 ± 2.9. Type of series: cell-based, mouse (BDF1-strain). The procedure: (§1) The mouse bone marrow cells used in the following experiments were all prepared as follows:
(§2) BDF1 -strain mice (female, 8 to 10 weeks old) were killed by cervical dislocation, and the femurs were collected under sterile conditions. The bone marrow cells were flushed out from the femurs with α-medium, and formed into a single cell suspension by repeated aspiration with a 26-gauge needle fitted to a 1 ml-syringe. The cells were washed two times with α-medium by centrifugation at 200×G for 5 minutes and used in the following experiments.
In accordance with the method of Murphy et al. mentioned above, mouse bone marrow cells were plated at 2.5×10^4 nuclear cells into 0.5 ml of α-medium containing 0.25 unit of erythropoietin, 30% fetal bovine serum, 1% bovine serum albumin, 0.1 mM 2-mercaptoethanol and 0.4% methyl cellulose with 10 μg of dolichol dissolved in 1 μl of ethanol, 10 μg of dolichyl phosphate dispersed in 0.5 μl of dimethyl sulfoxide, 1 μl of ethanol or 0.5 μl of dimethyl sulfoxide in a 16 mm.phi. tissue culture plate, and incubated at 37° C. in a humidified atmosphere of 5% carbon dioxide in air for 2 days. The number of cluster colonies consisting of 8 to 64 erythroblasts derived from CFU-e in the tissue culture plate was scored with an inverted microscope. The experiment was carried out by 6 replica assays for each group, and the average number of the colonies formed was determined. The results are shown in Table 3, in the rows of Runs 2 to 4.

A further series concerns sea urchin embryos. The settings on record: compactin added to the culture of the embryos; cited from earlier work.
Series [4] has as its system dolichol biosynthesis in spleen. Particulars: phenylhydrazine subcutaneous (induced anemia); cited from earlier work.
For series [5], the system named is early erythrocytic progenitor cells (BFU-e). The experiment in a line: Differentiation and proliferation of early erythrocytic progenitor cells (BFU-e), burst colony formation. Type of series: cell-based, mouse (BDF1-strain). Particulars: 20 μg/ml, Run 1. How it is done:
as §1, §2
In accordance with the method of Murphy et al. (In Vitro Aspects of Erythropoiesis, page 262, Sringer-Verlag, 1978), mouse bone marrow cells were plated at 2×10^5 nuclear cells into 1 ml of α-medium containing 1 unit of erythropoietin, 30% fetal bovine serum, 1% bovine serum albumin, 0.1 mM 2-mercaptoethanol and 0.8% methyl cellulose with 20 μg of dolichyl phosphate dispersed in 1 μl of dimethyl sulfoxide or 1 μl of dimethyl sulfoxide in a 35 mm.phi. tissue culture plate, and incubated at 37° C. in a humidified atmosphere of 5% carbon dioxide in air for 9 days. The number of burst colonies consisting of more than 500 erythroblasts derived from BFU-e in the tissue culture plate was scored with an inverted microscope. The experiment was carried out by 6 replica assays for each group, and the average number of the colonies formed was determined.

Series [6] relates to granulocyte-macrophage progenitor cells (CFU-c). The experiment in a line: Differentiation and proliferation of granulocyte-macrophage progenitor cells (CFU-c), colony formation. Type of series: cell-based, mouse (BDF1-strain). The settings on record: printed 20 g/ml (method: 20 μg in 1 ml), Run 5. How it is done:
as §1, §2
In accordance with the method of Worton et al. [R. G. Worton et al., J. Cell Physiol., 74, 171 (1969)], mouse bone marrow cells were plated at 1×10^5 nuclear cells into 1 ml of α-medium containing 10% L cell-conditioned medium as source of colony stimulating factor, 20% fetal bovine serum and 0.8% methyl cellulose with 20 μg of dolichyl phosphate dispersed in 1 μl of dimethyl sulfoxide or 1 μl of dimethyl sulfoxide in a 35 mm.phi. tissue culture plate, and incubated at 37° C. in a humidified atmosphere of 5% carbon dioxide in air for 7 days. The number of colonies consisting of more than 50 cells (granulocytecolonies, macrophage colonies or their mixed colonies) derived from […] was scored with an inverted microscope. The experiment was carried out by 6 replica assays for each group, and the average number of the colonies formed was determined.

In another series the test system is erythropoiesis. The series can be described thus: Erythropoiesis in vivo, 59Fe incorporation in hereditarily anemic mice (Run 7). Details: species or system mouse (WBB6 F1-W/Wv-strain). Particulars: 250 mg/kg once i.p. The procedure:
Phenylhydrazine was administered to normal mice and hereditarily anemic mice to induce severe hemolytic anemia. Then, the rate of erythropoiesis during recovering of anemia was determined by measuring the rate of radioactive iron (^59 Fe) incorporation into newly formed red blood cells [P. M. Cotes, D. R. Bangham, Nature (London), 191, 1067 (1961)]. The testing method and results are described below.
Dolichyl phosphate in a dose of 250 mg/kg (0.2 ml of an emulsion obtained by emulsifying […] of dolichyl phosphate and 25 mg of sesame oil in 1 ml of a 1% aqueous solution of sodium carboxymethyl cellulose per 20 g of the body weight) was intraperitoneally administered to hereditarily anemic WBB6 F1 -W/Wv-strain mice (6 weeks old, female) on the 1st day of the experiment. A 1% aqueous solution of sodium carboxymethyl cellulose was intraperitoneally administered (0.2 ml/20 g of body weight) to a control group. On the 2nd day, the mice in each group were subcutaneously injected with phenylhydrazine hydrochloride in a dose of 60 mg/kg. […] On the 5th day, 0.5 ml of the whole blood was taken from each mouse, and the ^59 Fe incorporation rates during the period of 48 hours were measured as in Run 6. The experiment was carried out on 6 mice in each group, and the average value of the incorporation rates was calculated.

The next series has as its system mice. The series can be described thus: Acute toxicity of dolichyl phosphate in mice. The format is in vivo, mouse (BDF1-strain). Particulars: 1000 mg/kg and 2000 mg/kg i.p.; 2nd day of administration. The procedure: (2) Dolichyl phosphate synthesized in Referential Example 3 below was dissolved in the same amount of sesame oil, and added to a 1% aqueous solution of sodium carboxy methyl cellulose so that the concentration of dolichyl phosphate reached 5% V/V. The resulting emulsion was used in the test.
BDF1 -strain mice (20-23 g, female), 6 per group, were used.

For `C[C@@H]1C[C@H]2[C@@H]3CCC4=CC(=O)C=C[C@]4(C)[C@@]3(F)[C@@H](O)C[C@]2(C)[C@@]1(O)C(=O)CO` [Dexamethasone], the “Effect on colony formation of erythropoietic progenitor cells” value (“Effect on colony formation” below) in series [1] is recorded as “.uparw”. The Side-effects entry in series [2] is “clinically undesirable side-effects such as electrolytic disorders, hypertension, peptic ulcer, diabetes, liver impediments, and masculinization”.

Take `CC(C)=CCC/C(C)=C/CC/C(C)=C/CC/C(C)=C\CC/C(C)=C\CC/C(C)=C\CC/C(C)=C\CC/C(C)=C\CC/C(C)=C\CC/C(C)=C\CC/C(C)=C\CC/C(C)=C\CC/C(C)=C\CC/C(C)=C\CC/C(C)=C\CC/C(C)=C\CC/C(C)=C\CC/C(C)=C\CC[C@H](C)CCO` [Dolichol (n = 15)]: the “Number of colonies formed in the dolichols-added group (CFU-e)” value in series [3] is reported as 293.0 ± 6.2. The activation at 20 µg/mL in series [3] (Mus musculus, 48 h, vs solvent-added control group, read-out: Percent increase (%) of colony formation (CFU-e)) was determined as 19.1%.

On to `CC[C@H](C)C(=O)O[C@H]1CCC=C2C=C[C@H](C)[C@H](CC[C@@H]3C[C@@H](O)CC(=O)O3)[C@H]21` [compactin], for which, in the series on sea urchin embryos, the “Differentiation of sea urchin embryos” value was “did not occur”.

Consider `NNc1ccccc1` [phenylhydrazine, reference compound], for which, in series [4], the “Rate of dolichol biosynthesis in spleen” value is recorded as “greatly increased”.

Consider “Growth hormone: hormone named in Table 1”, for which the “Effect on colony formation” value in series [1] is listed as “.uparw”.

As for Prostaglandin E, the “Effect on colony formation” value in series [1] is listed as “.uparw”.

With Thyroid hormone, the “Effect on colony formation” value in [1] was “.uparw”.

As to dolichyl phosphate, in [5] (9 days, erythropoietin 1 unit, mean ± S.E., 6 replicas, solvent control 73.7 ± 3.4), the “Number of colonies formed in the dolichols-added group (BFU-e)” value turned out to be 99.5 ± 2.4. In addition, in series [5] (vs solvent-added control group), the “Percent increase (%) of colony formation (BFU-e)” value is given as “+35.0%”. The “Number of colonies formed in the dolichols-added group (CFU-e)” value in series [3] is recorded as 166.7 ± 2.4. Further, in series [3] (vs solvent-added control group), the “Percent increase (%) of colony formation (CFU-e)” value is “+33.7%”. The “Number of colonies formed in the dolichols-added group (CFU-c)” value in series [6] (7 days, mean ± S.E., 6 replicas, solvent control 256.8 ± 4.3) is 295.3 ± 4.9. Further, the “Percent increase (%) of colony formation (CFU-c)” value in [6] (vs solvent-added control group) is listed as “+15.0%”. In addition, in the series with erythropoiesis (48 hours, control group 21.4), the “59Fe incorporation rate (%), dolichol administered group” value is reported as 23.1%. The “Erythropoiesis enhancing ratio (%)” value with erythropoiesis (percent increase of 59Fe incorporation rate vs control) is listed as “+7.9%”. For the same molecule, in the series with mice, the Mortality result is on record as “no case of death in all of the mice tested”.

B1: Human chorionic somatomammotropin: hormone named in Table 1 (protein, UniProt P0DML2 27-217, looked up)
Chorionic somatomammotropin …: VQTVPLSRLFDHAMLQAHRAHQLAIDTYQEFEETYIPKDQKYSFLHDSQTSFCFSDSIPTPSNMEETQQKSNLELLRISLLLIESWLEPVRFLRSMFANNLVYDTSDSDDYHLLKDLEEGIQTLMGRLEDGSRRTGQILKQTYSKFDTNSHNHDALLKNYGLLYCFRKDMDKVETFLRMVQCRSVEGSCGF
For B1, the “Effect on colony formation” value in series [1] was “.uparw”.
